The record followed here is US20040209914A1, “Aromatic sulfone hydroxamic acids and their use as protease inhibitors” (priority 2000, published 2004).

Molecules are shown by their SMILES. Bounds are passed on as bounds.

What all share (assay): biochemical
One assay has as its target T1, Recombinant human MMP-2 (Homo sapiens, UniProt P08253).
T1 construct: made in house
T1 sequence (P08253 110-660): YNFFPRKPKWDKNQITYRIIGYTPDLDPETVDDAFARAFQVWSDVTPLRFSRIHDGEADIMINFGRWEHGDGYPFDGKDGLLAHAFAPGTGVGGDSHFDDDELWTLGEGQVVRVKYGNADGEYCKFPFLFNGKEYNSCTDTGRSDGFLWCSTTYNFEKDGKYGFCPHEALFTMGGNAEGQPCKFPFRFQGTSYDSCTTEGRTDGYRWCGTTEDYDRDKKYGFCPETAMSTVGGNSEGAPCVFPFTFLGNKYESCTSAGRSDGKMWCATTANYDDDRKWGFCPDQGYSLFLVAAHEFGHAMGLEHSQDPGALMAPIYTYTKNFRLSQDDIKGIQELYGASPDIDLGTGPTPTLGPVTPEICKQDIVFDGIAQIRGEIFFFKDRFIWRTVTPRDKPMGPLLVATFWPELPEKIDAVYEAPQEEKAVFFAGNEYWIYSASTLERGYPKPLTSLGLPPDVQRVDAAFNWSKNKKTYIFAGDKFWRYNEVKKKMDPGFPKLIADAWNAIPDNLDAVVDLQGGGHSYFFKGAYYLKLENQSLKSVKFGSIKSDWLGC
The conditions noted are these: fluorogenic MCA-peptide substrate, pH 7.5, room temperature; read-out: MMP-2 IC50. In a few lines:
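Activated (APMA or trypsin) recombinant human MMP-2, from transfected expressing cells, incubated at room temperature with 4 uM fluorogenic substrate MCA-Pro-Leu-Gly-Leu-Dpa-Ala-Arg-NH2 and hydroxamate inhibitor.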

A further assay deals with T2, Recombinant human MMP-1 (Homo sapiens, UniProt P03956).
T2 construct: made in house; host or cells: transfected HT-1080 cells
T2 sequence (P03956 100-469): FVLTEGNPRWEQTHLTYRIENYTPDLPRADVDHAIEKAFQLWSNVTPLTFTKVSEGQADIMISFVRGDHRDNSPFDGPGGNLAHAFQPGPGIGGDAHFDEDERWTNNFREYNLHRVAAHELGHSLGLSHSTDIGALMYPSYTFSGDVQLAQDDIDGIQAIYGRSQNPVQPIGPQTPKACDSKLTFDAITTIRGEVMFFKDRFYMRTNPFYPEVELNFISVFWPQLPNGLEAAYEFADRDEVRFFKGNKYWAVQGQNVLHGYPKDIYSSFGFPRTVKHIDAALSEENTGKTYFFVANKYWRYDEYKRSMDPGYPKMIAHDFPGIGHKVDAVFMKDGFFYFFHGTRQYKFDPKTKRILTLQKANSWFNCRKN
The conditions noted are these: fluorogenic MCA-peptide substrate, pH 7.5, room temperature. As to the method: Recombinant human MMP-1, MMP-2, MMP-9, MMP-13, and were used in this assay. These enzymes were prepared in the Assignee's es following usual laboratory procedures. Specifics for preparing and e enzymes can be found in the scientific literature describing these See, e.g., Enzyme Nomenclature (Academic Press, San Diego, Calif., d the citations therein).
The MMP-1 was obtained from MMP-1 expressing transfected HT-1080 cells provided by Dr. Harold Welgus of Washington University in St. Louis, Mo. The MMP-1 was activated using 4-aminophenylmercuric acetate (APMA), and then purified over a hydroxamic acid column.
The enzyme substrate was a methoxycoumarin-containing polypeptide having the following sequence:
MCA-ProLeuGlyLeuDpaAlaArgNH2
Here, “MCA” is methoxycoumarin and “Dpa” is 3-(2,4-dinitrophenyl)-L-2,3-diaminopropionyl alanine.
These solutions were then compared to a control (which contained equal amount of DMSO/buffer solution, but no hydroxamate compound) using Microfluor™ White Plates (Dynatech, Chantilly, Va.). Specifically, The MMPs were activated with APMA or trypsin. […] The control likewise was incubated at room temperature in separate plates with the MMP and 4 uM of the MMP substrate. […] Inhibition was measured as a reduction in fluorescent intensity as a function of inhibitor concentration using a Perkin Elmer (Norwalk, Conn.) L550 plate reader. The IC50's were then calculated from these measurements.

The target in another assay is T3, Recombinant human MMP-13 (Homo sapiens, UniProt P45452).
T3 construct: made in house; host or cells: baculovirus / insect cells
The conditions noted are these: fluorogenic MCA-peptide substrate, pH 7.5, room temperature; read-out: MMP-13 IC50. Summed up: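 APMA-activated MMP (proenzyme purified on heparin agarose and chelating zinc columns) incubated at room temperature with 4 uM fluorogenic MCA-ProLeuGlyLeuDpaAlaArgNH2 substrate. Inhibition read as reduced fluorescence versus inhibitor concentration relative to a DMSO control, giving IC50.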

What is called IC50 is the concentration that gives 50% inhibition.

Take `Cc1ccc(C(=O)C2CCN(c3ccc(S(=O)(=O)C4(C(=O)NO)CCN(CC5CC5)CC4)cc3)CC2)cc1` [Example 210]: the IC50 was 13.1 nM at Recombinant human MMP-2, more than 10000 nM at Recombinant human MMP-1 and 1.1 nM on Recombinant human MMP-13.

In the case of `CCC(C)Cc1ccc(C(=O)C2CCN(c3ccc(S(=O)(=O)C4(C(=O)NO)CCN(CCOC)CC4)cc3)CC2)cc1` (stereo not drawn) [Example 205], the IC50 at Recombinant human MMP-2 is 412 nM; on Recombinant human MMP-1, more than 10000 nM; at Recombinant human MMP-13 it was less than 0.1 nM.

With `CCN1CCC(C(=O)NO)(S(=O)(=O)c2ccc(N3CCC(C(=O)c4ccc(CCCC(C)C)cc4)CC3)cc2)CC1` [Example 236], the IC50 at Recombinant human MMP-2 was 1850 nM; at Recombinant human MMP-1 it was more than 10000 nM; on Recombinant human MMP-13, 1.5 nM.

Take `O=C(CN1CCN(C(=O)C2CCN(c3ccc(S(=O)(=O)C4(C(=O)NO)CCOCC4)cc3)CC2)CC1)N1CCCC1` [Example 16]: the IC50 at Recombinant human MMP-2 is 4800 nM; on Recombinant human MMP-1, more than 10000 nM; on Recombinant human MMP-13 it was 42.5 nM.

With `COCCN1CCC(C(=O)NO)(S(=O)(=O)c2ccc(N3CCC(C(=O)c4ccc(Cl)c(C)c4)CC3)cc2)CC1` [Example 211], the IC50 on Recombinant human MMP-2 was 122 nM; at Recombinant human MMP-1, more than 10000 nM; at Recombinant human MMP-13, 1.2 nM.

On to `COCCN1CCC(C(=O)NO)(S(=O)(=O)c2ccc(N3CCC(C(=O)c4cccc(Cl)c4)CC3)cc2)CC1` [Example 186], for which the results for the IC50 at Recombinant human MMP-2, on Recombinant human MMP-1 and at Recombinant human MMP-13 were 94.4 nM, more than 10000 nM and 3.5 nM, respectively.

Take `O=C(c1ccc(CCC2CCCC2)cc1)C1CCN(c2ccc(S(=O)(=O)C3(C(=O)NO)CCOCC3)cc2)CC1` [Example 381]: the IC50 at Recombinant human MMP-2 is 640 nM; at Recombinant human MMP-1 it was more than 10000 nM; on Recombinant human MMP-13 it was 3.5 nM.

`CC(C)Cc1ccc(C(=O)C2CCN(c3ccc(S(=O)(=O)C4(C(=O)NO)CCN(C5CC5)CC4)cc3)CC2)cc1` [Example 189]: the IC50 was 258 nM at Recombinant human MMP-2, more than 10000 nM at Recombinant human MMP-1 and less than 0.1 nM at Recombinant human MMP-13.

Turning to `COCCN1CCC(C(=O)NO)(S(=O)(=O)c2ccc(N3CCC(C(=O)c4ccc(CC(C)C)cc4)CC3)cc2)CC1` [Example 218], the IC50 at Recombinant human MMP-2 is 75.7 nM; at Recombinant human MMP-1, more than 10000 nM; on Recombinant human MMP-13 it was 0.2 nM.

Regarding `CCN1CCC(C(=O)NO)(S(=O)(=O)c2ccc(N3CCC(C(=O)c4ccc(CCC(C)C)c(F)c4)CC3)cc2)CC1` [Example 249], the IC50 on Recombinant human MMP-2 is more than 10000 nM; at Recombinant human MMP-1, more than 10000 nM; on Recombinant human MMP-13, 5.8 nM.

On to `CCCc1ccc(C(=O)C2CCN(c3ccc(S(=O)(=O)C4(C(=O)NO)CCN(CC)CC4)cc3)CC2)cc1` [Example 170], for which the IC50 on Recombinant human MMP-2 is 134 nM; on Recombinant human MMP-1, more than 10000 nM; at Recombinant human MMP-13, 1.3 nM.

As for `COCCN1CCC(C(=O)NO)(S(=O)(=O)c2ccc(N3CCC(C(=O)c4ccc(CC(C)C)cn4)CC3)cc2)CC1` [Example 253], the IC50 at Recombinant human MMP-2 is 38.7 nM; at Recombinant human MMP-1, more than 10000 nM; at Recombinant human MMP-13 it was 1.7 nM.

Regarding `C=CCN1CCC(C(=O)NO)(S(=O)(=O)c2ccc(N3CCC(C(=O)c4ccc(OC)cc4)CC3)cc2)CC1` [Example 182], the IC50 on Recombinant human MMP-2 is 115 nM; at Recombinant human MMP-1, more than 10000 nM; at Recombinant human MMP-13 it was 1.1 nM.

For `O=C(c1ccc(CC2CCCCC2)cc1)C1CCN(c2ccc(S(=O)(=O)C3(C(=O)NO)CCOCC3)cc2)CC1` [Example 380], the IC50 was 2290 nM on Recombinant human MMP-2, more than 10000 nM on Recombinant human MMP-1 and 9.7 nM on Recombinant human MMP-13.

As for `CCOC(=O)CN1CCN(C(=O)C2CCN(c3ccc(S(=O)(=O)C4(C(=O)NO)CCOCC4)cc3)CC2)CC1` [Example 11], the results for the IC50 on Recombinant human MMP-2, on Recombinant human MMP-1 and on Recombinant human MMP-13 were 2700 nM, more than 10000 nM and 37 nM, respectively.

For `O=C(C1CCN(c2ccc(S(=O)(=O)C3(C(=O)NO)CCOCC3)cc2)CC1)N1CCN(CCO)CC1` [Example 10], the IC50 on Recombinant human MMP-2 was 6000 nM; at Recombinant human MMP-1, more than 10000 nM; at Recombinant human MMP-13, 40 nM.

On to `CC(C)N1CCN(C(=O)C2CCN(c3ccc(S(=O)(=O)C4(C(=O)NO)CCOCC4)cc3)CC2)CC1` [Example 15], for which the IC50 was 5500 nM at Recombinant human MMP-2, more than 10000 nM at Recombinant human MMP-1 and 28 nM on Recombinant human MMP-13.

On to `O=C(c1ccco1)N1CCN(C(=O)C2CCN(c3ccc(S(=O)(=O)C4(C(=O)NO)CCOCC4)cc3)CC2)CC1` [Example 13], for which the IC50 at Recombinant human MMP-2 is 3500 nM; at Recombinant human MMP-1, more than 10000 nM; on Recombinant human MMP-13, 31.6 nM.

For `COc1ccc(C2CCN(c3ccc(S(=O)(=O)C4(C(=O)NO)CCN(C5CC5)CC4)cc3)CC2)cc1` [Example 260], the IC50 was 1.2 nM on Recombinant human MMP-2, more than 10000 nM on Recombinant human MMP-1 and 0.4 nM on Recombinant human MMP-13.

As to `COCCc1sc(CC(=O)C2CCN(c3ccc(S(=O)(=O)C4(C(=O)NO)CCOCC4)cc3)CC2)nc1C` [Example 374], the half-maximal inhibitory concentration (IC50) at Recombinant human MMP-2 was 970 nM; at Recombinant human MMP-1, more than 10000 nM; at Recombinant human MMP-13 it was 5.6 nM.

For the compound `Cc1ccc(C(=O)C2CCN(c3ccc(S(=O)(=O)C4(C(=O)NO)CCN(S(C)(=O)=O)CC4)cc3)CC2)cc1` [Example 207], the IC50 on Recombinant human MMP-2 is 4.4 nM; on Recombinant human MMP-1 it was more than 10000 nM; at Recombinant human MMP-13, 1.1 nM.

Take `CC(C)CCOc1ccc(C(=O)C2CCN(c3ccc(S(=O)(=O)C4(C(=O)NO)CCN(C5CC5)CC4)cc3)CC2)cc1` [Example 217]: the IC50 is 270 nM at Recombinant human MMP-2, more than 10000 nM on Recombinant human MMP-1 and 1.3 nM on Recombinant human MMP-13.

With `C#CCN1CCC(C(=O)NO)(S(=O)(=O)c2ccc(N3CCC(C(=O)c4ccc(N(C)CC)cc4)CC3)cc2)CC1` [Example 174], the IC50 on Recombinant human MMP-2 is 1070 nM; on Recombinant human MMP-1, more than 10000 nM; at Recombinant human MMP-13, 1.1 nM.

Consider `COCCN1CCC(C(=O)NO)(S(=O)(=O)c2ccc(N3CCC(C(=O)c4ccc(CCCC(C)C)cc4)CC3)cc2)CC1` [Example 226], for which the IC50 was 1020 nM at Recombinant human MMP-2, more than 10000 nM on Recombinant human MMP-1 and less than 0.1 nM at Recombinant human MMP-13.

As to `C=CCN1CCC(C(=O)NO)(S(=O)(=O)c2ccc(N3CCC(C(=O)c4ccc(N(C)CC)cc4)CC3)cc2)CC1` [Example 181], the results for the IC50 at Recombinant human MMP-2, on Recombinant human MMP-1 and at Recombinant human MMP-13 were 936 nM, more than 10000 nM and 2.3 nM, respectively.

Regarding `CCC(C)Cc1ccc(C(=O)C2CCN(c3ccc(S(=O)(=O)C4(C(=O)NO)CCN(C5CC5)CC4)cc3)CC2)cc1` (stereo not drawn) [Example 200], the IC50 at Recombinant human MMP-2 is 1400 nM; on Recombinant human MMP-1, more than 10000 nM; on Recombinant human MMP-13, 0.5 nM.

On to `CCc1ccc(C(=O)C2CCN(c3ccc(S(=O)(=O)C4(C(=O)NO)CCN(S(C)(=O)=O)CC4)cc3)CC2)cc1` [Example 220], for which the IC50 at Recombinant human MMP-2 was 290 nM; at Recombinant human MMP-1, more than 10000 nM; at Recombinant human MMP-13 it was 1.7 nM.

For `COCCN1CCC(C(=O)NO)(S(=O)(=O)c2ccc(N3CCC(C(=O)c4ccc(Cl)cc4)CC3)cc2)CC1` [Example 119], the values for the IC50 on Recombinant human MMP-2, on Recombinant human MMP-1 and at Recombinant human MMP-13 were 200 nM, more than 10000 nM and 1 nM, respectively.

Regarding `O=C(c1ccc(F)c(F)c1)C1CCN(c2ccc(S(=O)(=O)C3(C(=O)NO)CCOCC3)cc2)CC1` [Example 302], the IC50 at Recombinant human MMP-2 is 35 nM; on Recombinant human MMP-1 it was more than 10000 nM; on Recombinant human MMP-13, 1.9 nM.
